One may read the Papp A→B as how fast a substance crosses the layer from the apical side. Read a high Papp A→B as fast passage. One may read the Papp B→A as the apparent permeability from the basolateral to the apical side of a cell layer. The term efflux ratio denotes a quotient of directional permeabilities that is used to spot active efflux.

Series [1] can be described thus: MPR1-MDCK permeability, potential to cross the blood-brain barrier. The format is in vitro ADME. The note with it: dog, MDCK. An excerpt:
(§1) A criterion for selecting an agent for proceeding to clinical trials is whether the compound crosses the blood-brain barrier. […] Fluphenazine (ICI-01175) is used as a control compound that has the potential to cross the blood-brain barrier. Table 1 summarizes the results of the test compounds for their potential to cross the blood-brain barrier.

Series [2] concerns MPR1-MDCK. The description is as above. The format is in vitro ADME. The note with it: from A-B Papp and efflux ratio.
Description: as §1

Series [3] deals with BALB/c mice, Af-induced allergic airway inflammation and hyperresponsiveness. In words: Murine Aspergillus fumigatus (Af)-induced asthma model, methacholine-induced lung resistance / airway hyperresponsiveness. The format is in vivo, mouse. An excerpt: The following experiments were designed to test the efficacy of the compounds of the invention on a murine asthma model. A murine model of Aspergillus fumigatus (Af)-induced allergic airway inflammation and hyperresponsiveness was adapted from Haczku et al. (2001 Am. J. Respir. Cell Mol. Biol. 25: 45-50) to determine the activity of the candicate compounds (FIG. 2).
Briefly, BALB/c mice were sensitized intraperitoneally and challenged intranasally with Af extract as a form of a type of allergen challenge in the presence or absence of dexamethasone. With respect to sensitization, “naïve” mice received intranasal vehicle challenges only, with phosphate-buffered saline (PBS) where as “sensitized’ mice were injected intraperitoneally with 25 μg Af together with alum in 100 μl of PBS on days 1 and 14, followed by intranasal challenge on days 25, 26, and 27 with 25 μg of Af extract in 40 PBS μl in the presence or absence of dexamethasone (2.5 mg/kg in 100 μl saline). On day 28, sensitized mice were treated with the test compound (0.1, 1.0, 10 mg/kg) either one hour before or simultaneously with methacholine challenge (2.5, 5, 10, 20 mg/mL). Methacholine challenge is to induce airway constriction.
The following experiments were designed to test the efficacy of the compounds of the invention on a murine asthma model. A murine model of Aspergillus fumigatus (Af)-induced allergic airway inflammation and hyperresponsiveness was adapted from Haczku et al. (2001 Am. J. Respir. Cell Mol. Biol. 25: 45-50) to determine the activity of the eradicate compounds (FIG. 11).
Briefly, BALB/c mice were sensitized intraperitoneally and challenged intranasally with Af extract as a form of a type of allergen challenge in the presence or absence of dexamethasone. With respect to sensitization, “naïve” mice received intranasal vehicle challenges only, with phosphate-buffered saline (PBS) where as “sensitized’ mice were injected intraperitoneally with 25 μg Af together with alum in 100 μl of PBS on days 1 and 14, followed by intranasal challenge on days 25, 26, and 27 with 25 μg of Af extract in 40 PBS μl in the presence or absence of dexamethasone (2.5 mg/kg in 100 μl saline) in combination with either o.g. treatment with ICI-735 (1 mg/kg or 10 mg/kg) or i.p. treatment with ICI-735 1 mg/kg. On day 28, sensitized mice were treated with methacholine challenge (2.5, 5, 10, 20 mg/mL). Methacholine challenge is to induce airway constriction.
With respect to the murine model of allergen induced AHR, BALB/c mice were sensitized and challenged via intranasal instillation of Aspergillus fumigatus (Af). […] Four hours after the last allergen challenge, airway function was assessed by flexivent. […]

The target in series [4] is T1, hERG (Homo sapiens, UniProt Q12809).
T1 construct: expressed in transfected cells
In words: Cardiac ion channels expressed in mammalian cells. The format is cell-based. The settings on record: 0.1 μM, 1 μm, 10 μm, and 100 μm. The text has this: Voltage-gated K channels are activated by membrane depolarization. As with all voltage-gated ion channels, depolarization results in a conformational change in the S4 voltage sensor which contains positively charged amino acids. This conformational change triggers additional conformational changes leading to channel opening. Upon depolarization, these channels open, allowing the efflux of potassium from the cell, down its electrochemical gradient. They function in the heart and brain to repolarize the membrane potential and to terminate an action potential. A-type potassium currents are quickly inactivating potassium currents (eg, Kv4.2 and Kv1.4) and are important in the initial notch of repolarization in cardiac cells and the fast-spiking behavior of some neurons. Slowly inactivating channels provide more prolonged repolarization effects (eg, Kv1.5, Kv3.1, Kv2.1). hERG (human Ether-a-go-go Related Gene) channels are unusual voltage-gated potassium channels in that they are inwardly rectifying due to accelerated inactivation at positive voltages. hERG channels play a role in long-QT syndrome and block of hERG can precipitate torsades de pointe which may lead to fatal ventricular fibrillation. Screening of drugs for effects on hERG is desirable in investigational compounds. […]

Series [5] addresses hCav1.2 (Homo sapiens, UniProt Q13936). In words: Cardiac ion channels expressed in mammalian cells. The format is cell-based. The note with it: 0.1 μM, 1 μm, 10 μm, and 100 μm. An excerpt:
Opening of voltage-gated calcium channels results in influx of calcium ions into the cell. This influx of calcium plays an important role in excitation-contraction coupling in cardiac and skeletal muscle fibers. The reversal potential for calcium is extremely positive, so calcium current is almost always inward, resulting in an action potential plateau in many excitable cells. These channels are the target of calcium channel blocker subtype of antihypertensive drugs. The alpha-1 subunit forms the ion conducting pore, with several modulating auxiliary subunits. Major subtypes of voltage-gated calcium channels include L-type (Cav1.1, Cav1.2, Cav1.3, Cav1.4), T-type (Cav3.1, Cav3.2, Cav3.3), N-type (Cav2.2), P-type (Cav2.1), and R-type (Cav2.3).
Mammalian cells were treated with ICI-735 (0.1 μM, 1 μm, 10 μm, and 100 μm) to determine whether ICI-735 blocked the expression of cardiac ion channels. It was observed that ICI-735 was able to block the expression of both hERG and hCav1.2). Without wishing to be bound by any particular theory, it is believed that the blocks in hERG and calcium channels may cancel one another physiologically, but sodium channel effect may lead to changes in membrane potential.

The subject of series [6] is isolated rabbit Purkinje fibers. Briefly: Action potential of isolated rabbit Purkinje fibers. The text has this: Further assessment in rabbit Punkinje fibers was undertaken to directly measure concentration-dependent changes in action potential induced by ICI-735.

Entries after “also recorded” stand apart in the source; their conditions may differ. Where two headings read alike, the source gives them in different places.

T1 sequence (Q12809 whole entry): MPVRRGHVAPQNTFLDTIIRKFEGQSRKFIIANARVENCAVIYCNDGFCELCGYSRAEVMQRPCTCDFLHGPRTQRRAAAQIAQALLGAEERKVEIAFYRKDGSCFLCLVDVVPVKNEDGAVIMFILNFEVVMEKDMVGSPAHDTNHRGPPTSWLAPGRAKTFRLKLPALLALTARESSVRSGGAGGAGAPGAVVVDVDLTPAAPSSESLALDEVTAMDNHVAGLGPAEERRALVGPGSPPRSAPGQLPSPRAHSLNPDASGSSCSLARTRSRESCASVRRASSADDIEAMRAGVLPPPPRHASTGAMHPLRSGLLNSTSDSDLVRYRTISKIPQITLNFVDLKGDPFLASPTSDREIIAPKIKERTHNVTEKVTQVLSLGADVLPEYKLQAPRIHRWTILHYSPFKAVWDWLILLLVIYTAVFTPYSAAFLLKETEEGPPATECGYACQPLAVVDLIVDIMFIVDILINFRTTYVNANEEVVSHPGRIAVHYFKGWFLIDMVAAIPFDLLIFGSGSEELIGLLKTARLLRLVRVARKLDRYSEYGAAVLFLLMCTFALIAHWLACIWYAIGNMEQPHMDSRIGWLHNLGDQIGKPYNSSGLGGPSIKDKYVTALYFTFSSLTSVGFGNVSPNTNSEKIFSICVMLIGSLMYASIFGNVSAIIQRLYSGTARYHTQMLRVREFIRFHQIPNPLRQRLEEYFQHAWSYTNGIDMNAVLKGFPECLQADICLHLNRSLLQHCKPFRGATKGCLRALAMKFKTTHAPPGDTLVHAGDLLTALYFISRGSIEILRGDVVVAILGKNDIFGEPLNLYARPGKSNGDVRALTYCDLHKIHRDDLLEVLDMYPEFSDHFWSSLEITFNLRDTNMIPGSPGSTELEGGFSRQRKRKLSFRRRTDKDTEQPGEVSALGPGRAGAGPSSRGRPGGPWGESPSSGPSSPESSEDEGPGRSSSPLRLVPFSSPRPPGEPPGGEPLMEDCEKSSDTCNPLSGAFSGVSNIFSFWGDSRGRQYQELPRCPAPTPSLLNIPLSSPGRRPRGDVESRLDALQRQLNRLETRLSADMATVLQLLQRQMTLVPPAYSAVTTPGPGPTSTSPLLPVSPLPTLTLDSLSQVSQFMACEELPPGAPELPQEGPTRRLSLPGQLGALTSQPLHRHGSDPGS
hCav1.2, sequence (Q13936 whole entry): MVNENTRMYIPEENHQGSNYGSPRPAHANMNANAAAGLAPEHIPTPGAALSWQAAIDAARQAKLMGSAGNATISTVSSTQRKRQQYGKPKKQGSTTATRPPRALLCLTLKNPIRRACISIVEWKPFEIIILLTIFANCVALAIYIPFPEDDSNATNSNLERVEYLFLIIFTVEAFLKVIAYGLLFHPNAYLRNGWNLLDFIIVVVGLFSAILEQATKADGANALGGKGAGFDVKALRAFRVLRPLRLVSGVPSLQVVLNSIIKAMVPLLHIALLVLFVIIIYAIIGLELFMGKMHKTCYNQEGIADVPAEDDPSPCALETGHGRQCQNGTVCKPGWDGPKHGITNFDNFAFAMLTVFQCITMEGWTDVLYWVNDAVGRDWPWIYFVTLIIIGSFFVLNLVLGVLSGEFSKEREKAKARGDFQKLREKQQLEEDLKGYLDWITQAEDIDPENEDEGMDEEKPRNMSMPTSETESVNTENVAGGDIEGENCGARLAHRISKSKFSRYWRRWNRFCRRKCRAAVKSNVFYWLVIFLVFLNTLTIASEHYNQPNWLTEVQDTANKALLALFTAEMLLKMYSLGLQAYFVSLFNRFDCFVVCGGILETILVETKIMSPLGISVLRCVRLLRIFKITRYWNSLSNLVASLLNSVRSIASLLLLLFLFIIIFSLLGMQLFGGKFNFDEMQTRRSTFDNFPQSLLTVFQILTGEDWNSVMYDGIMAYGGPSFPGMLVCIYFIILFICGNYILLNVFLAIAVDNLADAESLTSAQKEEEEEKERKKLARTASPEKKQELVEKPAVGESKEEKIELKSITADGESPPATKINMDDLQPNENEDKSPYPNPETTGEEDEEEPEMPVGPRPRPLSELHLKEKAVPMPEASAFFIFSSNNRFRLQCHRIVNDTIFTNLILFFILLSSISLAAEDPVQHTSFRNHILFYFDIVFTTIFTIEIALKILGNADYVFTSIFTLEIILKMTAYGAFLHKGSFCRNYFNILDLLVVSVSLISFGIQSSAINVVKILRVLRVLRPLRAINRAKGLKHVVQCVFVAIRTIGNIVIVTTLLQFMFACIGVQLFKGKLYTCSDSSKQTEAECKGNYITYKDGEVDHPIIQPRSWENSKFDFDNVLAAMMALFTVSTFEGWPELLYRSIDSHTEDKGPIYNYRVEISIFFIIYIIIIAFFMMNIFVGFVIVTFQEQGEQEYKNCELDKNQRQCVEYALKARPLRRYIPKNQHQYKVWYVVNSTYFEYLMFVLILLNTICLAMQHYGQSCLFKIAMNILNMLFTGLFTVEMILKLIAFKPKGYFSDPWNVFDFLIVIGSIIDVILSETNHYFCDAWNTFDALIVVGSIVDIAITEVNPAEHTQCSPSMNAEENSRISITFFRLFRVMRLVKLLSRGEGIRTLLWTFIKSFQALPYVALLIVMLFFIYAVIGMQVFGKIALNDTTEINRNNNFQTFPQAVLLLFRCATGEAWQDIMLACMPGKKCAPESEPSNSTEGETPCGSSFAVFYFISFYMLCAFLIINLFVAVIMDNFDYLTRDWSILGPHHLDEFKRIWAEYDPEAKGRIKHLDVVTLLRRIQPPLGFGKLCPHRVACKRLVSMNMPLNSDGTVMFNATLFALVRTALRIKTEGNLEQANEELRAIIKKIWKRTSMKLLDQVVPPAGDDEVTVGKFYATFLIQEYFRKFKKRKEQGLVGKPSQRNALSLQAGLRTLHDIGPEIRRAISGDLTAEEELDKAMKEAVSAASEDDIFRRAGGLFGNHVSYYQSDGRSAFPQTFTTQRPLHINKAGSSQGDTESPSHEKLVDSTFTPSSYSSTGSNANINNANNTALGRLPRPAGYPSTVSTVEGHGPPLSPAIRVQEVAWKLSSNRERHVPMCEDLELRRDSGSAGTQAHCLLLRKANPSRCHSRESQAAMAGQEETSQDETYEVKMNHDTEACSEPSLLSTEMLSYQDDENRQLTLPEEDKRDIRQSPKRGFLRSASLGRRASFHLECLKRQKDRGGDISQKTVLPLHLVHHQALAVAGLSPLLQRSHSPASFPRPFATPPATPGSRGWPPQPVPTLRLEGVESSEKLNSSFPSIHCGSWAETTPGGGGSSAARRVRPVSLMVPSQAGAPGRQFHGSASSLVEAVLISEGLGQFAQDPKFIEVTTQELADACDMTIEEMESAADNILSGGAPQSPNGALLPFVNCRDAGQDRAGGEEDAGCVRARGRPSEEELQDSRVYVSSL
hCav1.2, sequence (Q08289 whole entry partner): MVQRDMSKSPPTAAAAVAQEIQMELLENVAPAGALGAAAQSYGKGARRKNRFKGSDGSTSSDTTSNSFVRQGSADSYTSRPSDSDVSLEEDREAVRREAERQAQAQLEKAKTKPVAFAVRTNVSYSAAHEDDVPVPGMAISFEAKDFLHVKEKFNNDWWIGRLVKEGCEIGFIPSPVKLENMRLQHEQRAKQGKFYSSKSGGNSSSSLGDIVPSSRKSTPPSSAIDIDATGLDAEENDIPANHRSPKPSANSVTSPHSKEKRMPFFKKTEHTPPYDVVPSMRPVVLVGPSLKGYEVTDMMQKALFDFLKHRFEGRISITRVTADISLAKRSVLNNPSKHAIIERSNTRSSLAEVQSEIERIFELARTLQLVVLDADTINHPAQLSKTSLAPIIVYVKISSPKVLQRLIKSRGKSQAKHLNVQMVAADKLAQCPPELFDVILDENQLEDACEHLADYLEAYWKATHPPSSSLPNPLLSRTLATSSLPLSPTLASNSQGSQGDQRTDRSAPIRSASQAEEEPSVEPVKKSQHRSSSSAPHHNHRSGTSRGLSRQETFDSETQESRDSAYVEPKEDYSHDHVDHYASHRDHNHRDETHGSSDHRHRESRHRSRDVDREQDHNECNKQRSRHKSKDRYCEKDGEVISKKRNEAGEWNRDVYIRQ

For the compound `NCC(=O)NCCN1CCN(CCCN2c3ccccc3Sc3ccc(C(F)(F)F)cc32)CC1` [ICI-735], the Papp A→B in series [1] (A-B direction) was found to be 0.23 ×10⁻⁶ cm/s. The recovery stood at 47% in series [1] (A-B direction, read-out: % Recovery A-B) and 33% in series [1] (B-A direction, read-out: % Recovery B-A). Also, the Papp B→A in series [1] (B-A direction) amounted to 28.6 ×10⁻⁶ cm/s. Also, the efflux ratio in series [1] (efflux ratio) stood at 124. The “Brain Penetration Classification” value in series [2] is “Low (A-B Papp > 3.0 and Efflux Ratio > 10: Low)”. Besides, in series [3] (i.p. 1 mg/ml two hours prior to each intranasal challenge, flexivent four hours after last challenge), the “AHR in Af sensitized mice” value is recorded as “significantly inhibited”. The “decrease of lung resistance / airway hyper-responsiveness to methacholine” value in series [3] (intraperitoneal, from 0.1 mg/kg, one hour before or with methacholine challenge, compared with dexamethasone 2.5 mg/kg) is listed as “at least as effective as 2.5 mg/kg dexamethasone; also recorded: decreased airway hyperresponsiveness”; in series [3] (oral (o.g.), 1 mg/kg or 10 mg/kg), “effective at decreasing lung resistance”. In addition, the “effect on naive animal airway contraction” value in series [3] (naive mice) is on record as “no effect”. For the same compound, in series [4], the “block of hERG” value is given as “able to block”. Also, the “block of hCav1.2” value in series [5] is recorded as “able to block”. Further, the “effect on action potential duration at 60% (APD60) and APD90” value in series [6] is on record as “lack of effect”.

The values are drawn from US20100130457A1, “Phenothiazine Derivatives for Treatment of Asthma” (Immune Control, Inc., priority 2008, published 2010).
